Assay results: PMC8849072, “Sudapyridine (WX-081), a Novel Compound against Mycobacterium tuberculosis” (Microbiology Spectrum, 2022)
≈ marks a conversion by molar mass, not a printed value.

Legend:
[1] = tested on: M. tuberculosis clinical strain 15833; test: MBC determination (CFU-based); details: strain 15833: resistant to INH RFP RFT; 7 days incubation, 3 log10 CFU decrease
[2] = tested on: M. tuberculosis clinical strain 14550; test: MIC by microplate alamarBlue assay (MABA); format: cell-based, Mycobacterium tuberculosis; details: strain 14550: resistant to INH SM RFP EMB KM CPM AK 1321 PAS; for MIC: Mycobacterium tuberculosis
[3] = tested on: M. tuberculosis clinical strain 14441; test: MBC determination (CFU-based); details: strain 14441: resistant to INH RFP RBT AK CPM 1321 OFLX LVFX; 7 days incubation, 3 log10 CFU decrease
[4] = tested on: M. tuberculosis clinical strain 16825; test: MIC by microplate alamarBlue assay (MABA); format: cell-based, Mycobacterium tuberculosis; details: strain 16825: resistant to INH RFP AK RFT; for MIC: Mycobacterium tuberculosis
[5] = tested on: M. tuberculosis clinical strain 13946; test: MIC by microplate alamarBlue assay (MABA); format: cell-based, Mycobacterium tuberculosis; details: strain 13946: resistant to INH SM RFP EMB RBT PAS OFX; for MIC: Mycobacterium tuberculosis
[6] = tested on: M. tuberculosis clinical strain 14619; test: MIC by microplate alamarBlue assay (MABA); format: cell-based, Mycobacterium tuberculosis; details: strain 14619: resistant to INH RFP KM CPM AK 1321 PAS; for MIC: Mycobacterium tuberculosis
[7] = tested on: M. tuberculosis clinical strain 14282; test: MIC by microplate alamarBlue assay (MABA); format: cell-based, Mycobacterium tuberculosis; details: strain 14282: resistant to INH SM RFP EMB RBT 1321 OFX LFX; for MIC: Mycobacterium tuberculosis
[8] = tested on: M. tuberculosis clinical strain 14822; test: MIC by microplate alamarBlue assay (MABA); format: cell-based, Mycobacterium tuberculosis; details: strain 14822: resistant to INH SM RFP EMB KM RBT AK 1321 PAS; for MIC: Mycobacterium tuberculosis
[9] = tested on: M. tuberculosis clinical strain 14470; test: MIC by microplate alamarBlue assay (MABA); format: cell-based, Mycobacterium tuberculosis; details: strain 14470: resistant to INH SM RFP EMB KM RBT AK CPM 1321 PAS; for MIC: Mycobacterium tuberculosis
[10] = tested on: M. tuberculosis clinical strain 15321; test: MBC determination (CFU-based); details: strain 15321: resistant to INH RFP EMB AK ETO OFLX RFT; 7 days incubation, 3 log10 CFU decrease
[11] = tested on: M. tuberculosis clinical strain 14158; test: MIC by microplate alamarBlue assay (MABA); format: cell-based, Mycobacterium tuberculosis; details: strain 14158: resistant to INH SM RFP EMB AK 1321 PAS OFX; for MIC: Mycobacterium tuberculosis
[12] = tested on: M. tuberculosis clinical strain 14441; test: MIC by microplate alamarBlue assay (MABA); format: cell-based, Mycobacterium tuberculosis; details: strain 14441: resistant to INH RFP RBT AK CPM 1321 OFX LFX; for MIC: Mycobacterium tuberculosis
[13] = tested on: M. tuberculosis clinical strain 14619; test: MBC determination (CFU-based); details: strain 14619: resistant to INH RFP KM CPM AK 1321 PAS; 7 days incubation, 3 log10 CFU decrease
[14] = tested on: M. tuberculosis clinical strain 14862; test: MIC by microplate alamarBlue assay (MABA); format: cell-based, Mycobacterium tuberculosis; details: strain 14862: resistant to INH SM RFP EMB 1321 CPM PAS; for MIC: Mycobacterium tuberculosis
[15] = tested on: M. tuberculosis clinical strain 15321; test: MIC by microplate alamarBlue assay (MABA); format: cell-based, Mycobacterium tuberculosis; details: strain 15321: resistant to INH RFP EMB AK ETO OFX RFT; for MIC: Mycobacterium tuberculosis
[16] = tested on: M. tuberculosis clinical strain 14092; test: MIC by microplate alamarBlue assay (MABA); format: cell-based, Mycobacterium tuberculosis; details: strain 14092: resistant to INH SM RFP; for MIC: Mycobacterium tuberculosis
[17] = tested on: M. tuberculosis clinical strain 15833; test: MIC by microplate alamarBlue assay (MABA); format: cell-based, Mycobacterium tuberculosis; details: strain 15833: resistant to INH RFP RFT; for MIC: Mycobacterium tuberculosis
[18] = tested on: M. tuberculosis clinical strain 13908; test: MIC by microplate alamarBlue assay (MABA); format: cell-based, Mycobacterium tuberculosis; details: strain 13908: resistant to INH RFP EMB 1321 PAS OFX LFX; for MIC: Mycobacterium tuberculosis
[19] = tested on: M. tuberculosis clinical strain 16030; test: MIC by microplate alamarBlue assay (MABA); format: cell-based, Mycobacterium tuberculosis; details: strain 16030: resistant to INH RFP RFT; for MIC: Mycobacterium tuberculosis

Row | Structure (SMILES) | MBCs [1] | MIC [2] | MBCs [3] | MIC [4] | MIC [5] | MIC [6] | MIC [7] | MIC [8] | MIC [9] | MBCs [10] | MIC [11] | MIC [12] | MBCs [13] | MIC [14] | MIC [15] | MIC [16] | MIC [17] | MIC [18] | MIC [19] | also measured
1 | COc1nc2ccc(Br)cc2cc1[C@@H](c1ccccc1)[C@@](O)(CCN(C)C)c1cccc2ccccc12 [BDQ, bedaquiline] | >0.32 µg/mL | 0.051 µg/mL (≈ 0.0918 µM) | >2.5 µg/mL | 0.06 µg/mL (≈ 0.108 µM) | 0.021 µg/mL (≈ 0.0378 µM) | 0.052 µg/mL (≈ 0.0936 µM) | 0.053 µg/mL (≈ 0.0954 µM) | 0.111 µg/mL (≈ 0.2 µM) | 0.468 µg/mL (≈ 0.842 µM) | >0.313 µg/mL | 0.03 µg/mL (≈ 0.054 µM) | 0.214 µg/mL (≈ 0.385 µM) | 0.156 µg/mL | 0.006 µg/mL (≈ 0.0108 µM) | 0.028 µg/mL (≈ 0.0504 µM) | 0.048 µg/mL (≈ 0.0864 µM) | 0.09 µg/mL (≈ 0.162 µM) | 0.266 µg/mL (≈ 0.479 µM) | 0.017 µg/mL (≈ 0.0306 µM) | –
2 | NNC(=O)c1ccncc1 [INH, isoniazid] | – | 2.25 µg/mL (≈ 16.4 µM) | – | 2.37 µg/mL (≈ 17.3 µM) | 1.81 µg/mL (≈ 13.2 µM) | 4.38 µg/mL (≈ 31.9 µM) | 2.35 µg/mL (≈ 17.1 µM) | > 40 µg/mL | > 40 µg/mL | – | > 40 µg/mL | > 40 µg/mL | – | 2.17 µg/mL (≈ 15.8 µM) | 1.04 µg/mL (≈ 7.56 µM) | 2.41 µg/mL (≈ 17.5 µM) | 4.5 µg/mL (≈ 32.8 µM) | 3.01 µg/mL (≈ 21.9 µM) | 2.45 µg/mL (≈ 17.9 µM) | –
3 | NC[C@H]1O[C@H](O[C@H]2[C@H](O)[C@@H](O[C@H]3O[C@H](CO)[C@@H](O)[C@H](N)[C@H]3O)[C@H](N)C[C@@H]2N)[C@H](O)[C@@H](O)[C@@H]1O [KM, kanamycin] | – | – | – | – | – | – | – | – | – | – | – | – | – | – | – | – | – | – | – | MICs [2]: 1.186 µg/mL; MICs [4]: >40 µg/mL; MICs [5]: 0.788 µg/mL; MICs [6]: 1.195 µg/mL; MICs [7]: 1.199 µg/mL; MICs [8]: >40 µg/mL; MICs [9]: 0.437 µg/mL; MICs [11]: >40 µg/mL; MICs [12]: >40 µg/mL; MICs [14]: 1.243 µg/mL; MICs [15]: >40 µg/mL; MICs [16]: 1.199 µg/mL; MICs [17]: 2.302 µg/mL; MICs [18]: 1.151 µg/mL; MICs [19]: 1.072 µg/mL
4 | CO[C@H]1/C=C/O[C@@]2(C)Oc3c(C)c(O)c4c(O)c(c(/C=N/N5CCN(C)CC5)c(O)c4c3C2=O)NC(=O)/C(C)=C\C=C\[C@H](C)[C@H](O)[C@@H](C)[C@@H](O)[C@@H](C)[C@H](OC(C)=O)[C@@H]1C [RFP, rifampicin] | – | > 40 µg/mL | – | > 40 µg/mL | > 40 µg/mL | > 40 µg/mL | > 40 µg/mL | > 40 µg/mL | > 40 µg/mL | – | > 40 µg/mL | > 40 µg/mL | – | 15.2 µg/mL (≈ 18.5 µM) | > 40 µg/mL | > 40 µg/mL | > 40 µg/mL | 6.9 µg/mL (≈ 8.39 µM) | > 40 µg/mL | –
5 | COc1ncc(-c2ccc(Cl)cc2)cc1[C@@H](c1ccccc1)[C@@](O)(CCN(C)C)c1cccc2ccccc12 [WX-081, sudapyridine] | >1.25 µg/mL | 0.17 µg/mL (≈ 0.317 µM) | >5 µg/mL | 0.226 µg/mL (≈ 0.421 µM) | 0.098 µg/mL (≈ 0.182 µM) | 0.3 µg/mL (≈ 0.559 µM) | 0.113 µg/mL (≈ 0.21 µM) | 0.48 µg/mL (≈ 0.894 µM) | 0.966 µg/mL (≈ 1.8 µM) | >1.25 µg/mL | 0.111 µg/mL (≈ 0.207 µM) | 0.465 µg/mL (≈ 0.866 µM) | 0.313 µg/mL | 0.026 µg/mL (≈ 0.0484 µM) | 0.109 µg/mL (≈ 0.203 µM) | 0.235 µg/mL (≈ 0.438 µM) | 0.236 µg/mL (≈ 0.439 µM) | 0.849 µg/mL (≈ 1.58 µM) | 0.057 µg/mL (≈ 0.106 µM) | –
